# Measured values from patent US20260102359A1, “COMBINATION TREATMENT OF DERMAL AND TRANSDERMAL FIBROTIC DISEASES, DISORDERS AND ASSOCIATED PAIN AND INFLAMMATION” (ERESINA, LLC, priority 2022, published 2026).
# Where a name gives a salt, the structure may show the parent alone.
# Tested on: hDMFa myofibroblast cells
row,Compound,Compound Myofibroblast Cytotoxicity Activity
1,"O=c1ccc2ccc(OCCCCN3CCN(c4cccc5sccc45)CC3)cc2[nH]1 [Cmpd 191, Brexpiprazole]",+++
2,"O=C(O)/C=C/c1ccc(O)c(O)c1 [Cmpd 200, Caffeic acid]",+
3,"Cn1nnc(-c2ccc(-c3ccc(N4C[C@H](CO)OC4=O)cc3F)cn2)n1 [Cmpd 920, Tedizolid HCl]",++++
4,"CCCCCCCCCCCCCCCCCC(=O)O [Cmpd 889, Stearic Acid]",+++
5,"NC(=O)c1cccnc1 [Cmpd 705, Niacinamide]",+
6,"N#CC(c1ccc(Cl)cc1)c1c(Cl)cc(-n2ncc(=O)[nH]c2=O)cc1Cl (stereo not shown) [Cmpd 354, Diclazuril]",+++
7,"Oc1c(I)cc(Cl)c2cccnc12 [Cmpd 281, Clioquinol]",++
8,"O=c1ccn([C@@H]2O[C@H](COP(=O)([O-])OP(=O)([O-])OP(=O)([O-])O)[C@@H](O)[C@H]2O)c(=O)[nH]1.[Na+].[Na+].[Na+] [Cmpd 990, UTP, Trisodium Salt]",++
9,"CC(C)(CO)C(O)C(=O)NCCCO (racemic) [Cmpd 370, DL-Panthenol]",+++
10,"Cc1ccnc(NS(=O)(=O)c2ccc(N)cc2)n1 [Cmpd 895, Sulfamerazine]",+++
11,"C[Si]1(C)O[Si](C)(C)O[Si](C)(C)O1 [Cmpd 505, Hexamethylcyclotrisiloxane]",+
12,"COc1ccc(OC)c(C(O)CNC(=O)CN)c1 (stereo not shown) [Cmpd 673, Midodrine (hydrochloride)]",++++
13,"COc1ccc(CC2c3cc(OC)c(OC)cc3CC[N+]2(C)CCC(=O)OCCCCCOC(=O)CC[N+]2(C)CCc3cc(OC)c(OC)cc3C2Cc2ccc(OC)c(OC)c2)cc1OC (stereo not shown) [Cmpd 142, Atracurium Besylate]",+++
14,"CC[C@H](C)[C@H](N)C(=O)O [Cmpd 594, L-Isoleucine]",+
15,"CN1CCN(c2nc(C3=C(c4c[nH]c5ccccc45)C(=O)NC3=O)c3ccccc3n2)CC1 [Cmpd 884, Sotrastaurin (AEB071)]",++
16,"Cc1ccc(S(=O)(=O)NC(=O)NN2CCCCCC2)cc1 [Cmpd 953, Tolazamide]",++++
17,"CC(C(=O)O)c1ccc(CC2CCCC2=O)cc1 (stereo not shown) [Cmpd 611, Loxoprofen Sodium]",++
18,CCCCCCCCCCCCCCCC(=O)OC [Cmpd 754],+++
19,"CCN1CCN(Cc2ccc(Nc3ncc(F)c(-c4cc(F)c5nc(C)n(C(C)C)c5c4)n3)nc2)CC1 [Cmpd 622, LY2835219 free base]",++++
20,"Cc1[nH]cnc1CN1CCc2c(c3ccccc3n2C)C1=O.Cl [Cmpd 101, Alosetron Hydrochloride]",++++
21,"CC[C@H](C)C(=O)O[C@H]1CCC=C2C=C[C@H](C)[C@H](CC[C@@H]3C[C@@H](O)CC(=O)O3)[C@H]21 [Cmpd 668, Mevastatin]",+++
22,"CN1CCC(COc2cnc(-c3cccc(Cn4nc(-c5cccc(C#N)c5)ccc4=O)c3)nc2)CC1 [Cmpd 413, EMD-1214063]",++++
23,"CCCCC1OC(=O)c2ccccc21 (stereo not shown) [Cmpd 54, 3-n-Butylphathlide]",++
24,O=c1ccc2cc(O)c(O)cc2o1 [Cmpd 69],++
25,"Cc1cccc(N(C)C(=S)Oc2ccc3ccccc3c2)c1 [Cmpd 956, Tolnaftate]",++++
26,"CCc1oc2ccccc2c1C(=O)c1cc(Br)c(O)c(Br)c1 [Cmpd 164, Benzbromarone]",++++
27,"O=C(O)CCCNC(=O)c1cccnc1 [Cmpd 783, Pikamilone]",++
28,"O=C1CN(/N=C/c2ccc([N+](=O)[O-])o2)C(=O)N1 [Cmpd 720, Nitrofurantoin]",++++
